Data from patent US11242337B2, “Compounds useful for treating gastrointestinal tract disorders” (Ardelyx, Inc., priority 2017, dated 2022).
Where two headings read alike, the source gives them in different places.

Tests used:
NHE3 [1] = molecular target: T1, NHE3 (Homo sapiens, UniProt P48764); experiment: Cell-based assay of NHE-3 activity (pre-incubation inhibition), human; conditions: human Preincubation; for pIC50: 0-30 μM test compound
T1 construct: expressed in transfected cells
T1 sequence (P48764 26-834): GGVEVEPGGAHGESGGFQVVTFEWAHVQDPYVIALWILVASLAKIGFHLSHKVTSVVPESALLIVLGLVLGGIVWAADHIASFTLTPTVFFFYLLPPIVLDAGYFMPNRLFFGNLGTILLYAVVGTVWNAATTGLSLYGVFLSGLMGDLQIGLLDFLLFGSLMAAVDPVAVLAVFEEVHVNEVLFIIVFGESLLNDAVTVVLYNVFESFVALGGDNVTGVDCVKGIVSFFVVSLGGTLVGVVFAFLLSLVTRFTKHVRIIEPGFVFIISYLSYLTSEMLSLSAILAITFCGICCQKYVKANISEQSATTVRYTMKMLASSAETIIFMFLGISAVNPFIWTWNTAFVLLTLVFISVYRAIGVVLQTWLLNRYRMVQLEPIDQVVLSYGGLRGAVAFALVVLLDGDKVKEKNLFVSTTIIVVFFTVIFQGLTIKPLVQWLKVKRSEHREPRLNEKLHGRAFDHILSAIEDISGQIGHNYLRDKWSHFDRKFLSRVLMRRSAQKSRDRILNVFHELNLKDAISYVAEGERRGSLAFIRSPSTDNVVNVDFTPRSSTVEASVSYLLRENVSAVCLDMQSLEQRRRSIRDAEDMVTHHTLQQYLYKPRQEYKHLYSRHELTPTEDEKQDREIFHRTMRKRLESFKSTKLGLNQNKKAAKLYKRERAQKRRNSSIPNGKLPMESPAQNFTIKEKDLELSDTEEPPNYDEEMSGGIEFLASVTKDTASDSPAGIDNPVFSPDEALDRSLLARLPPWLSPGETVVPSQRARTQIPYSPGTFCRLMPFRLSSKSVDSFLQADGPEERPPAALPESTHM
T1 sequence (Q99653 2-195 partner limits assumed): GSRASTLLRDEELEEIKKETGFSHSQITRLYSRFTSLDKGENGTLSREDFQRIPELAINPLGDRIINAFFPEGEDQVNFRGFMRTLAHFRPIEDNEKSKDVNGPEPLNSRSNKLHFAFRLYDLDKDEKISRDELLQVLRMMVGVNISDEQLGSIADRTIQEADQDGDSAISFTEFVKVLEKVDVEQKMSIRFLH
Method in brief: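 PS120 fibroblasts stably expressing human NHE3 and NHERF2, loaded 30 min at 37 °C with 5 μM BCECF-AM in NH4Cl buffer, then acidified 10 min at room temperature in Na+-free buffer with 0–30 μM compound. Initial rate of BCECF fluorescence ratio change (FLIPR) per minute taken as Na+/H+ activity.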

NHE3 [2] = molecular target: T1, NHE3; experiment: Cell-based assay of NHE-3 activity (persistent inhibition), human; conditions: human Persistence, 60 min incubation then washout
Method in brief: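 PS120 fibroblasts expressing human NHE3 with NHERF2 exposed to 0-30 μM compound for 60 min at RT, then washed out; cells acid-loaded by NH4Cl prepulse with BCECF-AM and Na+-free buffer. Na+-driven pH recovery started 10 min post-washout; initial rate of BCECF ratio change (FLIPR) taken as activity.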

[3] = test system: absorption of sodium from the intestinal lumen; experiment: Inhibition of intestinal sodium absorption in mice; format: in vivo; conditions: CD-1 mice, 15 mg/kg oral gavage twice daily; for response vs control in vivo at 15 mg/kg: Mus musculus, 72 h, day 3, normalized to dietary sodium intake
Method: Urinary and fecal sodium excretions were measured to assess the ability of selected example compounds to inhibit the absorption of sodium from the intestinal lumen. In addition, an assessment of the absence or presence of diarrhea in response to compound treatment was made. Approximately eight-week old, male, CD-1 mice were purchased from Envigo (Livermore, Calif.), were housed 6 per cage and acclimated for at least 48 hours before study initiation. Animals were fed Harlan Teklad Global TD.160470 rodent chow (Madison, Wis.), standard laboratory rodent chow Harlan Teklad Global 2018 with the addition of 0.4% inorganic phosphorous. […] To initiate the study, mice were weighed and then individually placed in metabolic cages. Following a 3-day acclimation period to the metabolic cage, a 24-hr baseline collection of urine and feces was performed. […] Each day, measurements of body weight. 24-hour food intake, water intake, urine volume and wet fecal weight were recorded, along with any observation of diarrhea. Fecal samples were dried using a lyophilizer for at least 3 days, following which dry weight was recorded and fecal fluid content was calculated based on the difference between the wet and dry stool weights. Fecal fluid content on day 3 of compound treatment was calculated as a change from the vehicle group mean. For urine samples, the volumes were determined gravimetrically. Feces and urine were analyzed for sodium content by microwave plasma-atomic emission spectroscopy or ion chromatography, respectively. Urine samples were analyzed on an ion chromatography system (Thermo Fisher ICS-3000 or ICS-5000+) coupled with conductivity detectors. Chromatographic separation of cations was performed using an IonPac CS12A (Thermo Fisher) 2×250 mm analytical column with an isocratic elution using […] methanesulfonic acid. Concentrations were interpolated from a a standard curve (prepared in 10 mM HCl) for sodium ion based on retention time and peak area. Fecal sample analysis by Microwave Plasma Atomic Emission Spectrometry (MP-AES). Dry fecal samples were ground into a fine powder on a homogenizer and the ground samples (400-600 mg aliquots weighed) were digested with nitric acid by microwave method (Mars 6). These digested samples were diluted with 1% Nitric acid and analyzed on Agilent 4100 MP-AES. Concentrations were calculated relative to a standard curve (prepared in 1% Nitric acid) for sodium based on the signal intensity. Sodium was detected at a wavelength of 588.995 nm. Twenty-four-hour urinary sodium excretion (ma/24-hours) was calculated by multiplying urinary sodium concentration by 24-hour urine volume. Twenty-four-hour fecal sodium excretion (mg/24-hours) was calculated by multiplying fecal sodium concentration by 24-hour dry fecal weight. The urinary and fecal sodium excretion on day 3 of compound treatment were normalized to dietary sodium intake and expressed as a percentage of the vehicle mean.

Row | SMILES | % inhibition (NHE3 [1]) | % inhibition (NHE3 [2]) | Fecal fluid content (Δ from vehicle) ([3]; day 3, change from vehicle group mean) | response vs control in vivo at 15 mg/kg ([3]; read-out: Fecal Na Excretion (% of vehicle)) [%] | response vs control in vivo at 15 mg/kg ([3]; read-out: Urinary Na Excretion (% of vehicle)) [%] | pIC50 (NHE3 [1]) | pIC50 (NHE3 [2])
1 | CN(C)[C@@H]1CCCN([C@H]2Cc3c(Cl)cc(Cl)cc3[C@@H]2Oc2ccc(S(=O)(=O)NCCOCCOCCNC(=O)NCCCCNC(=O)NCCOCCOCCNS(=O)(=O)c3ccc(O[C@H]4c5cc(Cl)cc(Cl)c5C[C@@H]4N4CCC[C@@H](N(C)C)C4)c(F)c3)cc2F)C1 [Example 27, 3-[2-(2-[2-[(4-[[(1S,2S)-4,6-Dichloro-2-[(3R)-3-(dimethylamino)piperidin-1-yl]-2,3-dihydro-1H-inden-1-yl]oxy]-3-fluorobenzene)sulfonamido]ethoxy]ethoxy)ethyl]-1-[4-([[2-(2-[2-[(4-[[(1S,2S)-4,6-dichloro-2-[(3R)-3-(dimethylamino)piperidin-1-yl]-2,3-dihydro-1H-inden-1-yl]oxy]-3-fluorobenzene)sulfonamido]ethoxy]ethoxy)ethyl]carbamoyl]amino)butyl]urea; bis(trifluoroacetic acid)] | C (>70%) | C (>70%) | C (>10) | > 200 | 50 to 70 |  | 
2 | C[C@@H]1CN([C@H]2Cc3c(C#N)cc(Cl)cc3[C@@H]2Oc2ccc(S(=O)(=O)N[C@@H]3CCN(CCOCCNC(=O)NCCCCNC(=O)NCCOCCN4CC[C@@H](NS(=O)(=O)c5ccc(O[C@H]6c7cc(Cl)cc(C#N)c7C[C@@H]6N6C[C@@H](C)N[C@@H](C)C6)cc5)C4)C3)cc2)C[C@H](C)N1 [Example 137, 4-([(1S,2S)-6-Chloro-4-cyano-2-[(3S,5R)-3,5-dimethylpiperazin-7-yl]-2,3-dihydro-1H-inden-1-yl]oxy)-N—[(R)-1-(20-[(R)-3-([4-([(1S,2S)-6-chloro-4-cyano-2-[(3S,5R)-3,5-dimethylpiperazin-1-yl]-2,3-dihydro-1H-inden-1-yl]oxy)phenyl]sulfonamido)pyrrolidin-1-yl]-7,14-dioxo-3,18-dioxa-6,8,13,15-tetraazaicosyl)pyrrolidin-3-yl]benzenesulfonamide; bis(trifluoroacetic acid)] | C (>70%) | C (>70%) |  |  |  | C (NHE3 pIC50 > 7) | C (NHE3 pIC50 > 7)
3 | N#Cc1cc(Cl)cc2c1C[C@H](N1CCNCC1)[C@H]2Oc1ccc(S(=O)(=O)N[C@@H]2CCN(C(=O)CCCNC(=O)NCCCCNC(=O)NCCCC(=O)N3CC[C@@H](NS(=O)(=O)c4ccc(O[C@H]5c6cc(Cl)cc(C#N)c6C[C@@H]5N5CCNCC5)cc4)C3)C2)cc1 [Example 142, 4-([(1S,2S)-6-Chloro-4-cyano-2-(piperazin-1-yl)-2,3-dihydro-1H-inden-1-yl]oxy)-N—[(R)-1-(18-[(R)-3-([4-([(1S,2S)-6-chloro-4-cyano-2-(piperazin-1-yl)-2,3-dihydro-1H-inden-1-yl]oxy)phenyl]sulfonamido)pyrrolidin-1-yl]-6,13,18-trioxo-5,7,12,14-tetraazaoctadecanoyl)pyrrolidin-3-yl]benzenesulfonamide] | C (>70%) | C (>70%) |  |  |  | C (NHE3 pIC50 > 7) | C (NHE3 pIC50 > 7)
4 | N#Cc1cc(Cl)cc2c1C[C@H](N1CCNCC1)[C@H]2Oc1ccc(S(N)(=O)=O)cc1 [Example 146, 4-([(1S,2S)-6-Chloro-4-cyano-2-(piperazin-1-yl)-2,3-dihydro-1H-inden-1-yl]oxy)benzenesulfonamide] | C (>70%) | A (NHE3 < 40%) |  |  |  | C (NHE3 pIC50 > 7) | C (NHE3 pIC50 > 7)
5 | N#Cc1cc(Cl)cc2c1C[C@H](N1CCNCC1)[C@H]2Oc1ccc(S(=O)(=O)NC2CCN(C(=O)CCCNC(=O)NCCCC(=O)N3CCC(NS(=O)(=O)c4ccc(O[C@H]5c6cc(Cl)cc(C#N)c6C[C@@H]5N5CCNCC5)cc4)CC3)CC2)cc1 [Example 154, 4-([(1S,2S)-6-Chloro-4-cyano-2-(piperazin-1-yl)-2,3-dihydro-1H-inden-1-yl]oxy)-N-[1-(4-[3-(4-[4-([4-([(1S,2S)-6-chloro-4-cyano-2-(piperazin-1-yl)-2,3-dihydro-1H-inden-1-yl]oxy)phenyl]sulfonamido)piperidin-1-yl]-4-oxobutyl)ureido]butanoyl)piperidin-4-yl]benzenesulfonamide] | C (>70%) | C (>70%) |  |  |  | C (NHE3 pIC50 > 7) | C (NHE3 pIC50 > 7)
